Source: patent US6361773B1, “Antibodies produced against cytokine suppressive anti-inflammatory drug binding proteins” (SmithKline Beecham Corporation, priority 1993, dated 2002)
Read-outs that look alike come from different tables or passages of the source.

Tests used:
[1] = tested on: IL-1 production in human monocytes; experiment: CSAIDs bioassay (IL-1 dependent EL-4/IL2 induction assay, LPS-stimulated human monocytes); format: cell-based; details: Monocyte
Description: The biological assay employed to evaluate CSAIDs activity was the IL-1 dependent EL-4/IL2 induction assay (Simon, P. L. et al., J. Immuno. Meth. 84: 85-94 (1985)). Briefly, Human monocytes were plated in 24-well plates in LPS-free RPMI 1640 media containing 1% human AB serum at a concentration of 10^6 per millilitre per well and allowed to adhere for 1 h at 37° C.; non-adherent cells were removed by gentle washing. Test compounds or media were added to the cells 0 or 1 h before the addition of bacterial lipopolysaccharide (E. coli 001:B4; Difco, Detroit) at 10 ng/ml. The cultures were then incubated at various intervals as indicated at 37° C. in a humidified 5% CO2 atmosphere. At the end of the incubation period, culture supernatants were collected. The residual adherent monocytes were lysed in a buffer containing 0.15M octyl-glucopyranoside, 25 mM Hepes, and 0.5 mM phenylmethylsulfonylfluoride in saline. Both supernatants and cell lysates were clarified by centrifugation and assayed for IL-1 activity.
IL-1 activity was measured by its ability to stimulate the secretion of IL-2 by EL-4 (ATCC TIB181) cells in the presence of A23187 ionophore. Serial dilutions of the samples were incubated with 10^5 EL-4 cells in the presence of 2×10^−7 M calcium ionophore A23187. After overnight incubation, 0.1 ml of a cell-free supernatant from each culture was taken and incubated with 10^4 IL-2-dependent […] (ATCC-T11B214) cells. Following an additional 20 hours of incubation, the cultures were pulsed with 1 μCi of tritiated thymidine for 4 h. The cells were then harvested onto glass-fibre filters and the radioactivity deterrnined by liquid scintillation counting.

[2] = biological target: T1, CSAID binding protein (CSBP) in THP.1 cytosol (Homo sapiens, UniProt Q16539); experiment: CSAID binding assay with 3H-Compound I and THP.1 cytosol
T1 construct: endogenous in cells; host or cells: THP.1 (ATCC TIB 202), cytosolic fraction (100,000 x g supernatant)
T1 sequence (Q16539 whole entry): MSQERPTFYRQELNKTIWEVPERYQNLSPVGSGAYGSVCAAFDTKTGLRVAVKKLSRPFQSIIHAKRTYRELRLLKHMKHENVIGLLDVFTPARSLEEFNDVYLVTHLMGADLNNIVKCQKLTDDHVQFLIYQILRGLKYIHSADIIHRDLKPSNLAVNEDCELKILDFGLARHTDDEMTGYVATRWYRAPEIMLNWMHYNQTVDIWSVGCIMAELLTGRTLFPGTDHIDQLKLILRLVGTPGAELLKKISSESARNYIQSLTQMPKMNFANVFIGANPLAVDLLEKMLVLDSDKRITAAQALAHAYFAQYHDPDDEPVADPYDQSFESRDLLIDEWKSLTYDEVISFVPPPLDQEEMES

[3] = Table II, read-out: IC50 in competitive CSAID binding assay

Structure (SMILES)	IC50 ([1]; read-out: IC50 in the bioassay) [nM]	IC50 [2, 3] [nM]	also measured
N#Cc1ccc(-c2nc(-c3ccc(F)cc3)c(-c3ccnc4ccccc34)n2O)cc1 [Compound VII]	20	–	–
[N-]=[N+]=Nc1ccc(-c2nc(-c3cccc([125I])c3)c(-c3ccncc3)[nH]2)cc1 [Compound IV, 4-[2-(4-azidophenyl)-5-(3-^125Iodo-phenyl)-1H-imidazol-4-yl]pyridine]	–	–	IC50 ([1]; read-out: IC50 in a CSAIDs bioassay): 3000 nM; IC50 ([2]; read-out: IC50 in a competitive binding assay): 500 to 800 nM
CC(Cc1ccc(O)c(O)c1)C(C)Cc1ccc(O)c(O)c1 (stereo not drawn) [NDGA]	–	154000	–
NC(=O)N1C(=O)/C(=C(\O)c2cccs2)c2cc(Cl)ccc21 [Tenidap]	–	139000	–
CCc1nc(-c2ccc(OC)cc2)[nH]c1-c1ccncc1 [Compound VIII]	> 5000	–	–
